Where “and” joins values, the source holds several entries; their conditions need not be identical. Identical values can stand only once.
What was measured:
Assay type in all cases: cell-based
Set-up in all cases: GPCRome screening signal at PTGIR / GPCRome screening signal at PTH1R / GPCRome screening signal at PTH2R / GPCRome screening signal at QRFP / GPCRome screening signal at RXFP2 / GPCRome screening signal at RXFP3 / GPCRome screening signal at RXFP4 / GPCRome screening signal at S1PR2 / GPCRome screening signal at S1PR3 / GPCRome screening signal at S1PR4 / GPCRome screening signal at S1PR5 / GPCRome screening signal at SCTR / GPCRome screening signal at SSTR2 / GPCRome screening signal at SSSTR / GPCRome screening signal at SSTR4 / GPCRome screening signal at SSTR5 / GPCRome screening signal at SUCNR1 / GPCRome screening signal at TA1 / GPCRome screening signal at TAAR2 / GPCRome screening signal at TAAR5 / GPCRome screening signal at TAAR6 / GPCRome screening signal at TAAR8 / GPCRome screening signal at TACR1 / GPCRome screening signal at TACR2 / GPCRome screening signal at TACR3 / GPCRome screening signal at TBXA2R / GPCRome screening signal at TSHR / GPCRome screening signal at UTS2R / GPCRome screening signal at VIPR2 / GPCRome screening signal at GPR68 no V2 Tail / GPCRome screening signal at GRM2 / GPCRome screening signal at GRM3: reference not given here
320 non-olfactory GPCRs [1] = molecular target: T1, 320 non-olfactory GPCRs (Homo sapiens, UniProt Q14416); settings: receptor GRM2
T1 construct: expressed in transfected cells; host or cells: HTLA cells
T1 sequence (Q14416 19-872): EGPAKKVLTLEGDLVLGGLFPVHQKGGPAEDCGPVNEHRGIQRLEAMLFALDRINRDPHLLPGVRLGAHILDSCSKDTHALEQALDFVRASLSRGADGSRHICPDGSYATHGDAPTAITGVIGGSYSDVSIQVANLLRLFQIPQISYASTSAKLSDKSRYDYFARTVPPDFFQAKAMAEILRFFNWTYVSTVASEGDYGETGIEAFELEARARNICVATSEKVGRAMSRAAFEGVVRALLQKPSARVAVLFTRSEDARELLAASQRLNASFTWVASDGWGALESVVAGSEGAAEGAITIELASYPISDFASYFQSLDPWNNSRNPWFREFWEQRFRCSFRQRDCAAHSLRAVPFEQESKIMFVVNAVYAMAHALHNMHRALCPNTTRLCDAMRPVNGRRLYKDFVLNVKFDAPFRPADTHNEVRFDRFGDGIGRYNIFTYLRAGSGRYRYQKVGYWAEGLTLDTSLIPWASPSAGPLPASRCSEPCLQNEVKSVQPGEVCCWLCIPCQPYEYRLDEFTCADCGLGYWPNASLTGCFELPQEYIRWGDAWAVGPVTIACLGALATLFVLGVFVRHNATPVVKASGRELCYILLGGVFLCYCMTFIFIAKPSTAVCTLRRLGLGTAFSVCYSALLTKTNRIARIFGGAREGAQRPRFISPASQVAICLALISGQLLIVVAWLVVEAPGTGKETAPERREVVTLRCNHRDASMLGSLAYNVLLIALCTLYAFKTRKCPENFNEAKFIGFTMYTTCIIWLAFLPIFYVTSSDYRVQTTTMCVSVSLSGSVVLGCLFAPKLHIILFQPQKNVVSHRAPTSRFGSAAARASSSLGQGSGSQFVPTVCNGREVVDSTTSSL

320 non-olfactory GPCRs [2] = molecular target: T2, 320 non-olfactory GPCRs (Homo sapiens, UniProt Q9NSD7); settings: receptor RXFP3
T2 construct: expressed in transfected cells; host or cells: HTLA cells
T2 sequence (Q9NSD7 whole entry): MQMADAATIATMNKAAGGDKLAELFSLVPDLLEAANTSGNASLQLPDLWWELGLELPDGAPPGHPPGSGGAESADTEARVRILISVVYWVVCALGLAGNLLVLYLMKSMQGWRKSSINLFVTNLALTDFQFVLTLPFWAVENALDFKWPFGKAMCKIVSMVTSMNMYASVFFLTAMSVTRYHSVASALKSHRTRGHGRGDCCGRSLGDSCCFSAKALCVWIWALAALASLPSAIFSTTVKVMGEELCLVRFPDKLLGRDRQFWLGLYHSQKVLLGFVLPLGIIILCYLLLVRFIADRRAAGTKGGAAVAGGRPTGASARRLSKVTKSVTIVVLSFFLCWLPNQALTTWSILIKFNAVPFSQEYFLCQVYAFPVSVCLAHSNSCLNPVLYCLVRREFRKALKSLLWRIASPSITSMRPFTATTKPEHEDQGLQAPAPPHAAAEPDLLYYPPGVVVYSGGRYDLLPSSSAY

320 non-olfactory GPCRs [3] = molecular target: T3, 320 non-olfactory GPCRs (Homo sapiens, UniProt Q96RI9); settings: receptor TAAR9
T3 construct: expressed in transfected cells; host or cells: HTLA cells
T3 sequence (Q96RI9 whole entry): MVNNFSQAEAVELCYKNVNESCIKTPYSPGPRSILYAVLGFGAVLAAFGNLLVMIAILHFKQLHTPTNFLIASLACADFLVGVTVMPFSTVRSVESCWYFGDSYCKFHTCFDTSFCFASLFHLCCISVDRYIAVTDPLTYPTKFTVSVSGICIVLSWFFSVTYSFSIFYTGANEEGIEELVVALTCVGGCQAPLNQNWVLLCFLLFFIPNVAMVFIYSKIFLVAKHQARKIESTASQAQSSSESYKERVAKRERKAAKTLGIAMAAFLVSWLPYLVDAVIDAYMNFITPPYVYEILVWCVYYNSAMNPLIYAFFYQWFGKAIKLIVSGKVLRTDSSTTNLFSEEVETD

320 non-olfactory GPCRs [4] = molecular target: T4, 320 non-olfactory GPCRs (Homo sapiens, UniProt O14804); settings: receptor TAAR5
T4 construct: expressed in transfected cells; host or cells: HTLA cells
T4 sequence (O14804 whole entry): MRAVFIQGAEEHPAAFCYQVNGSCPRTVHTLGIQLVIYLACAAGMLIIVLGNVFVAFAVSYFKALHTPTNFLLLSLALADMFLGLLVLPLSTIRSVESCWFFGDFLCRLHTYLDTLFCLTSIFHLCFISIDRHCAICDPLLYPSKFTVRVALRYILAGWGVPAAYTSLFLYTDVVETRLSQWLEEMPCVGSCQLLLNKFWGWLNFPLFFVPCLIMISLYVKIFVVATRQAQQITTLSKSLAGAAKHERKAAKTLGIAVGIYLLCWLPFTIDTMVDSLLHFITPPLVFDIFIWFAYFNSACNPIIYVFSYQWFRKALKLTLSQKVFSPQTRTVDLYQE

[5] = Fig_5f, single replicate values
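For GPCRome agonism screen response in this document: fold over basal response of each receptor without drug.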

GPCRome screening signal at GRM2 (320 non-olfactory GPCRs [1]; [5])	GPCRome screening signal at RXFP3 (320 non-olfactory GPCRs [2]; [5])	GPCRome screening signal at TAAR9 (320 non-olfactory GPCRs [3]; [5])	GPCRome screening signal at TAAR5 (320 non-olfactory GPCRs [4]; [5])	Compound	GPCRome agonism screen response (320 non-olfactory GPCRs [1]; replicate values, Fig_4g)	GPCRome agonism screen response (320 non-olfactory GPCRs [2]; replicate values, Fig_4g)	GPCRome agonism screen response (320 non-olfactory GPCRs [3]; replicate values, Fig_4g)	GPCRome agonism screen response (320 non-olfactory GPCRs [4]; replicate values, Fig_4g)
–	–	–	–	CCOc1cccc2cc(C(C)NCC3(O)CCCCC3)oc12 (centres unmarked) [O4LE6]	1.717 and 0.9934 and 0.846 and 0.4952	0.4551 and 0.2696 and 0.704 and 0.4767	0.8369 and 1.036 and 0.7156 and 1.104	1.083 and 1.815 and 1.566 and 2.161
0.9548 and 1.3016 and 1.1 and 0.9506	0.4184 and 0.8431 and 0.6194 and 0.3935	1.0253 and 1.396 and 1.2735 and 0.8423	1.144 and 1.4451 and 1.369 and 1.654	CCOc1ccccc1CCC(C)NCC1(O)CCCCC1.Cl (racemic) [Fig_5f]	–	–	–	–

— publication PMC7044277 (Nature Communications, 2020)
